Experimental data from patent US10973912B2, “Treatment for myopathy” (Children's Medical Center Corporation, priority 2015, dated 2021).

Tests used:
Type in all cases: in vivo, zebrafish (Danio rerio)
ryr1b skeletal muscles = assay: Tetanic force per cross-sectional area in larvae at 5 dpf; conditions: WT, n=5, 9 biphasic 200 μs pulses at 300 Hz
Description: Tetanic forces were measured following stimulation with 9 biphasic, 200 μs square-wave pulses at 300 Hz (WT-DMSO: 45.6±4.2 kPa, n=5; WT-NIF: 52.8±4.1 kPa, n=5; ryr1b-DMSO: 11.4±1.3 kPa, n=7; ryr1b-NIF: 25.4±4.0 kPa, n=7). Significance was determined by a one-way ANOVA (F=29.61, P<0.0001), followed by pairwise Tukey's HSD post hoc tests. […] Non-linear regression data of curves were not statistically different, as determined by an extra sum-of-squares F test (P=1.0).
Ryr1b mutants display weaker muscle contractions than wild-type clutchmates as early as 2 dpf^30. To investigate whether […] affects contractile strength in zebrafish, ryr1b mutants and unaffected controls were treated with the compound for several days. At 5 dpf, electrophysiological studies were performed with the help of Dr. Jeffrey Widrick.

[1] = system: ryr1b homozygous mutant zebrafish; assay: Secondary screen of individual chemicals in ryr1b zebrafish (vitality: survival and touch-evoked escape behavior); set-up: key: vitality score, theoretical range 0–60; DMSO controls expected ~50; conditions: 2.0 μg/mL from 1 dpf, scored at 5 dpf; average of two replicates of 20 larvae from heterozygous ryr1b matings; score=(#Dead*0)+(#ryr1b*1)+(#Moderate*2)+(#Wild-type*3), max 60, expected 50 in DMSO controls
Description: Each scored compound represents an average of two replicates, consisting of 20 larvae from heterozygous ryr1b matings (n=40). Larvae obtained from wild-type AB matings served as positive controls. […] Significance was determined by pairwise comparisons between control and experimental pools using a Student's t-test. Vitality score=(#Dead*0)+(#ryr1b*1)+(#Moderate*2)+(#Wild-type*3). Standard deviations shown for positive and negative controls were calculated based on results from 5 and 21 independent experiments, respectively.
Primary screen. For the primary screen, twenty embryos (1 dpf) resulting from a mating of heterozygous ryr1b zebrafish were manually sorted into 48-well plates containing 250 μL embryo 1×E3 medium (5.0 mM NaCl, 0.17 mM KCl, 0.33 mM CaCl2*2H2O, 0.33 mM MgSO4*7H2O) and four pooled chemicals from the Prestwick2 chemical library. Each chemical pool was assayed in duplicate using embryos from two independent clutches, for a total of 24 distinct pools tested per plate (FIG. 1). The chemicals were dissolved to a final concentration of 2.0 μg/mL and 0.4% DMSO, which is similar to concentrations other groups have used in zebrafish studies^37,38. As a negative control, twenty embryos from each clutch were cultured without chemicals in vehicle only (0.4% DMSO) (FIG. 1). Larvae obtained from wild-type (Oregon AB) matings served as positive controls in separate plates. All plates containing embryos were incubated at 28.5° C. and maintained as initially treated for 5 days. Dead embryos were removed from wells when observed during the first 4 days of the study. On day 5, dead or “motion-dead” larvae were scored alongside living larvae.
At 5 dpf, pools were scored for their ability to improve the survival and touch-evoked escape behaviors of ryr1b homozygous mutants using the following numeric scoring system: 3=4-6 cm, fast (wild-type); 2=2-4 cm (moderate); 1=<2 cm, slow (ryr1b); 0=no movement (dead) (FIG. 2A). Survival, swimming, and combined endpoints of the primary screen were then examined for their ability to distinguish positive from negative controls. […] Taking into account both experimental replicates (n=40), hit pools contained at least 37 alive larvae on day 5 (i.e., 70-100% of the larvae assumed to be ryr1b mutants survived the duration of the study), and were selected for analysis in a secondary screen.
In the secondary screen, hit pools were separated and tested as 68 individual chemicals. Screening was performed precisely as described for the primary screen with few modifications. Embryos were raised in wells containing 750 μL 1×E3 medium, as opposed to 250 μL, although the final concentration of each compound was maintained at 2.0 μg/mL. […] Vitality scores, weighting survival and swimming ratios appropriately, were calculated as (#Dead*0)+(#ryr1b*1)+(#Moderate*2)+(#Wild-type*3). Theoretical maximum and minimum scores were 60 and 0, respectively, with an expected score of 50 in DMSO-treated controls. Secondary screen hits (P<0.05), considered “candidate” compounds, are currently being examined in dose-response and long-term studies.
The second tier of the chemical screen was performed two years following the primary screen, with a fully established ryr1b^+/− line. Healthier clutches tended to result in better survival of homozygous ryr1b mutants. Median mutant life spans more accurately adhered to the 7-15 day estimate previously published^30. Therefore, in the secondary screen, hit chemical pools were separated into individual compounds and each of 68 total compounds was examined for its ability to positively influence both ryr1b survival and motor function (referred to in combination as “vitality”). […] These included two anti-inflammatory agents (sulfasalazine and ketoprofen), two monoamine oxidase inhibitors (pargyline hydrochloride and tranylcypromine hydrochloride), and two ion channel modulators (metolazone and nimodipine).

phosphorylated Stat3 = assay: Western blot of phosphorylated Stat3 at 5 dpf; conditions: 10 μg/mL, normalized to β-Actin
Description: In two independent experiments, two pools of 20 larvae from heterozygous ryr1b matings were treated with DMSO or with one of three different concentrations of NIF (1.0-100.0 μg/mL) at 1 dpf and evaluated in terms of touch-evoked escape behaviors at 5 dpf (n=40). Following phenotypic scoring, all living embryos were genotyped using three-primer genomic PCR. Swimming scores for larvae genotype-confirmed as ryr1b homozygous mutants are shown as a percentage of the total number of living larvae in each dose category: 1=poor swimming; 2 or 3=moderate or wild-type swimming. NIF improved mobility of ryr1b mutants at a dose of 10 μg/mL. […] Phospho-Stat3 band intensities were normalized to β-Actin control bands and quantified in Image J (NIH).
Western blotting was performed on groups of 50-100 wild-type or mutant zebrafish larvae at 5 dpf. […] Phospho-Stat3 band intensities were normalized to control bands and quantified in Image J (NIH).
To determine whether zebrafish stat3 is differentially expressed in the wild-type and Ryr1-deficient background, quantitative real-time RT-PCR was performed using fluorescently tagged Taqman probes.

## O=C(N/N=C/c1ccc([N+](=O)[O-])o1)c1ccc(O)cc1 [Nifuroxazide]
ryr1b skeletal muscles
  tetanic force per cross-sectional area, wild-type larvae: 52.8±4.1 kPa
[1]
  Vitality Score: 52.0
Phosphorylated Stat3
  levels of phosphorylated Stat3 protein: larger decrease in ryr1b mutants than in unaffected controls
